Reference: patent publication EP2090576A1, “6-halo-pyrazolo[1,5-a]pyridines, a process for their preparation and their use as metabotropic glutamate receptor (mGluR) modulators” (Merz Pharma GmbH & Co. KGaA, priority 2008, dated 2009)

Columns and labels:
mGluR5 receptors = target: T1, mGluR5 receptors (Rattus norvegicus, UniProt P31424); assay: Cytosolic Calcium studies with astrocytes (astrocyte culture test, FLIPR); type: cell-based; conditions: primary rat cortical astrocytes, 14-15 DIV; 10 minutes pre-incubation, L-quisqualate 100 nM; read-out: mGluR5_FLIPRr_rpA IC50
T1 construct: Primary astrocyte cultures are prepared from cortices of newborn rats; endogenous in cells; host or cells: primary cortical astrocytes from Sprague-Dawley rat pups (2-4 d old), 14-15 DIV
Experimental: Primary astrocyte cultures are prepared from cortices of newborn rats as described by Booher and Sensenbrenner (1972, Neurobiology 2(3):97-105). Briefly, Sprague-Dawley rat pups (2 - 4 d old) are decapitated and neocortices are dissected, disintegrated with a nylon filter (pore size 80 µm) and carefully triturated. The cell suspension is plated on poly-D-lysine pre-coated flasks (Costar, Netherlands) and cultivated in Dulbecco's Modified Eagle's Medium (DMEM, Invitrogen, Germany) supplemented with 10% foetal calf serum (FCS, Sigma, Germany), 4 mM glutamine and 50 µg/ml gentamycin (both Biochrom, Germany) at 37°C in a humidified atmosphere of 5% CO2 / 95% air for 7 d with exchanging the medium at day 2 and 6.
After 7 days in vitro (DIV), cells are shaken overnight at 250 rpm to remove oligodendrocytes and microglia. The next day, astrocytes are rinsed twice with CMF-PBS (calcium- and magnesium-free phosphate buffered saline, Biochrom, Germany), trypsinized and subplated on poly-D-lysine pre-coated 96-well plates (Greiner, Germany) at a density of 40,000 cells/well. 24 h after establishing the secondary culture the astrocytes are rinsed with PBS^++ (phosphate buffered saline, Biochrom, Germany) and fed with astrocyte-defined medium (ADM) consisting of DMEM containing 1x G5-supplement (Invitrogen, Germany), 0.5 µg/ml heparan sulfate, and 1.5 µg/ml fibronectin (both Sigma, Germany) (Miller et al., (1993) Brain Res. 618(1):175-8). 3 d later the medium is exchanged and the cells incubated for another 2-3 d, so that at the time of experiments astrocytes are 14-15 DIV.
Cytosolic Calcium studies with astrocytes:
The increase of cytosolic calcium after stimulation with the mGluR5 agonist L-quisqualate is measured using a fluorometric imaging plate reader (FLIPR) and the Ca-Kit (both Molecular Devices). Prior to addition of agonist or antagonist the medium is aspirated and cells are loaded for 2 h at RT with 150 µl of loading buffer consisting of Ca-sensitive dye reconstituted in sodium chloride (123 mM), potassium chloride (5.4 mM), magnesium chloride (0.8 mM), calcium chloride (1.8 mM), D-glucose (15 mM), and HEPES (20 mM), pH 7.3. Subsequently, plates are transferred to FLIPR to detect calcium increase with the addition of L-quisqualate (100 nM) measured as relative fluorescence units (RFU). If antagonists are tested, these compounds are pre-incubated for 10 minutes at RT before addition of the respective agonist.
(§1) The fluorescence signal increase after addition of agonist reflects the increase of cytosolic calcium. Inconsistencies in the amount of cells per well are normalised by using the spatial uniformity correction of the FLIPR software. The mean of replicated temporal data (n=3-5) is calculated and used for graphical representation. For the evaluation of the pharmacology, the calcium changes in response to different concentrations of agonist or antagonist are determined using a maximum minus minimum (MaxMin) calculation.
(§2) All responses (RFU-values) are determined as percentage of control (= maximum response). EC50 and IC50 are calculated according the logistic equation using GraFit 5.0 (Erithacus Software, GB) or Prism 4.0 (GraphPad Software, USA).

[1] = target: T2, human metabotropic glutamate receptor mGluR5 (Homo sapiens, UniProt P41594); assay: Cytosolic Calcium studies with stably transfected cells (FLIPR); type: cell-based; conditions: CHO-K1 cells with inducible human mGluR5; test compound added 5 minutes before L-quisqualic acid (concentration giving ~80% of the maximal signal); read-out: mGluR5_FLIPR_h_ CHO_NAM IC50
T2 construct: expressed in transfected cells; host or cells: CHO-K1 cells (IPTG-inducible expression)
Experimental: Cytosolic Calcium studies with stably transfected cells:
Chinese hamster ovary cells (CHO-K1 cells), stably transfected for inducible expression of a human metabotropic glutamate receptor mGluR5, are seeded into black clear bottom 96 well plates at a density of 35.000 cells per well. The standard growth medium used (Dulbecco's modified Eagle Medium, DMEM plus L-proline) contains the appropriate inducer isopropyl-β-D-thiogalactopyranosid (IPTG) to achieve optimal receptor expression. One day after seeding the growth medium is exchanged for reconstituted Ca-Kit (Molecular Devices, USA) and incubated for one hour. Ca-Kit is reconstituted in an assay buffer containing 20 mM HEPES pH 7.4, glutamic-pyruvate transaminase, pyridoxal phosphate and sodium pyruvate in Hank's balanced salt solution (HBBS). Agonistic compounds to the receptor elicit increases in cytosolic calcium which can be measured as increases in fluorescence signals by use of a fluorescence imaging plate reader (Molecular Devices).
as §1, §2

[2] = target: T3, transmembrane allosteric modulatory sites of mGluR5 receptors (Rattus norvegicus, UniProt P31424); assay: [3H]-MMPEP binding assay in rat cortical membranes; conditions: radioligand [3H]-MMPEP, 60 minutes at room temperature, read-out: mGluR5_M_ MPEP_r_CTX_ IC50
T3 construct: from tissue; host or cells: rat cerebral cortex membranes (male Sprague-Dawley rats)
Experimental: Preparation of rat cortical membranes:
The resulting pellet is re-suspended in 20 volumes of distilled water and centrifuged for 20 minutes at 8000 x g. […] All centrifugation steps are carried out at 4°C.
Alternatively, assays are performed with [^3H]-MMPEP (2-(3-methoxyphenylethynyl)-6-methylpyridine hydrochloride) as radioligand. […] Incubations are terminated using a Millipore filter system.

T2 sequence (P41594 21-1212): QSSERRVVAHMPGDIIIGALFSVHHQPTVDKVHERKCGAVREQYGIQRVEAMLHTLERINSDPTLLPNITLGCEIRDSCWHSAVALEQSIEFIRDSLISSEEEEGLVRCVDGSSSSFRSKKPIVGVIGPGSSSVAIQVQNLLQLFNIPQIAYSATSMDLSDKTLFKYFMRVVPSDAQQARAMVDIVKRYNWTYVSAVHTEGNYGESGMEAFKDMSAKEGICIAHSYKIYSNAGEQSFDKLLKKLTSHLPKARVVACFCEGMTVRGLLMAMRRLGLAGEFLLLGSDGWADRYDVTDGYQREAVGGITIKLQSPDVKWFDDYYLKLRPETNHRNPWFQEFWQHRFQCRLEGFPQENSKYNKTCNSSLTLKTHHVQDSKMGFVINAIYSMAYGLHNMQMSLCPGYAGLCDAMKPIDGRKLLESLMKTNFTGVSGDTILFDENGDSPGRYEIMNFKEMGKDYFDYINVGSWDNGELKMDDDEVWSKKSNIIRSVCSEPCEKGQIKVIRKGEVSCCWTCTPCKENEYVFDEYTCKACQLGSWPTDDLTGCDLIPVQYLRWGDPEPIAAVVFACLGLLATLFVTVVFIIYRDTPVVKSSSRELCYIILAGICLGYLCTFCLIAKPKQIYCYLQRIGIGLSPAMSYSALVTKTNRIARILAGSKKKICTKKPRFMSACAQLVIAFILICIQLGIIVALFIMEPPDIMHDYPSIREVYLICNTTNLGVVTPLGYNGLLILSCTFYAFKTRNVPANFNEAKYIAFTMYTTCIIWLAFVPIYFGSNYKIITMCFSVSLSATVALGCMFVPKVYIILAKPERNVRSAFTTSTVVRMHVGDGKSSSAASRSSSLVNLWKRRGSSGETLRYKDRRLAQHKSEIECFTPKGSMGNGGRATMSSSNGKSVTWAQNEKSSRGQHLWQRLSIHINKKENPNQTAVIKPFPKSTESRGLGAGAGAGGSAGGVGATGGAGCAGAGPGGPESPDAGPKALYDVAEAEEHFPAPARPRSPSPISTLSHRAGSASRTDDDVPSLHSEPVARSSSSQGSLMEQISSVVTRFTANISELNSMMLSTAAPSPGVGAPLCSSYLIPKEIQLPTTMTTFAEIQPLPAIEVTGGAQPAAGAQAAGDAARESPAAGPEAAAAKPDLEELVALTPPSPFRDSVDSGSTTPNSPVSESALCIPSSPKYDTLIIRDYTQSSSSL
T3 sequence (P31424 21-1203): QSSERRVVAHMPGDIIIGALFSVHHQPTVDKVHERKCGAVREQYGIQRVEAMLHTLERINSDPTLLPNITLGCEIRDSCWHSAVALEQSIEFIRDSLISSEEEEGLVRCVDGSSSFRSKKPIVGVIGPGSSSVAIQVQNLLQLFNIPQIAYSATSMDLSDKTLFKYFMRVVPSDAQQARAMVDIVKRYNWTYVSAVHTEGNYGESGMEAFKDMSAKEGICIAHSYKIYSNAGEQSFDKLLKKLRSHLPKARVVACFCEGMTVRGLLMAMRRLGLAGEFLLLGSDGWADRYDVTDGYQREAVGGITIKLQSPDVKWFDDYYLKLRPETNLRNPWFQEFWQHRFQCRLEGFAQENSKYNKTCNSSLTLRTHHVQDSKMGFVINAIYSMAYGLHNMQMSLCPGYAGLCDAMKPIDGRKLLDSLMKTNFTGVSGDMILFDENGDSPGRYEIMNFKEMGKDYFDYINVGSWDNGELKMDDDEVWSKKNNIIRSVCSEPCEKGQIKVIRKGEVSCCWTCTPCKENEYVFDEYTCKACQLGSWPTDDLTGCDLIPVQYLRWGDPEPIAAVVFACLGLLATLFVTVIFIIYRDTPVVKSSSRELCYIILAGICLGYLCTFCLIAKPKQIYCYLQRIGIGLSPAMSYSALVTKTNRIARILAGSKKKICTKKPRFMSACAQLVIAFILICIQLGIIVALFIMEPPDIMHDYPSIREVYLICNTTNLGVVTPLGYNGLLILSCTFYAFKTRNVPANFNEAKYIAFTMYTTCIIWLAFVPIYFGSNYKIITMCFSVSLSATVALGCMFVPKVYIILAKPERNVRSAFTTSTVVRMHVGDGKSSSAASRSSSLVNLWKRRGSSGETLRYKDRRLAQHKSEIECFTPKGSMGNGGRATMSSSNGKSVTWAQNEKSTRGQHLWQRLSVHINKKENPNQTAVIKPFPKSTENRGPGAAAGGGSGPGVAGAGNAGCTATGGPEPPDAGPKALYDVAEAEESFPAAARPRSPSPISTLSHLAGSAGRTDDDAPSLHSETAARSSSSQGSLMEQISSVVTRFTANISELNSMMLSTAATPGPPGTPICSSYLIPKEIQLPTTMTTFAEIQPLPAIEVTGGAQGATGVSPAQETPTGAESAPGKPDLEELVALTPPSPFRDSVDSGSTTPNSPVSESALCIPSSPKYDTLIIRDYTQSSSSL
T1 sequence (P31424 21-1203): as above

IC50 (mGluR5 receptors) | IC50 [1] | SMILES | other results
156 nM |  | CN1c2ccccc2CCN1C(=O)c1cc2ccc(Br)cn2n1 [drawing 1023, (6-Bromo-pyrazolo[1,5-a]pyridin-2-yl)-(1-methyl-3,4-dihydro-1H-cinnolin-2-yl)-methanone] | 
42.5 nM |  | CC1c2ccoc2CCN1C(=O)c1cc2ccc(Br)cn2n1 (stereo not shown) [drawing 1022, (6-Bromo-pyrazolo[1,5-a]pyridin-2-yl)-(4-methyl-6,7-dihydro-4H-furo[3,2-c]pyridin-5-yl)-methanone] | 

Further lines, the compound ahead of its results:

SMILES | IC50 (mGluR5 receptors) | IC50 [1] | other results
Cc1ccc2n1CCN(C(=O)c1cc3ccc(Br)cn3n1)C2C (stereo not shown) [drawing 1013, 6-bromo-2-[(1,6-dimethyl-3,4-dihydropyrrolo[1,2-a]pyrazin-2(1H)-yl)carbonyl]pyrazol o[1,5-a]pyridine] |  | 178 nM | 
CN1c2ccccc2CCN1C(=O)c1cc2ccc(Br)cn2n1 [drawing 1015, (6-Bromo-pyrazolo[1,5-a]pyridin-2-yl)-(1-methyl-3,4-dihydro-1H-cinnolin-2-yl)-methanone] |  | 410 nM | 
CC1c2ccccc2CCN1C(=O)c1cc2ccc(Br)cn2n1 (stereo not shown) [drawing 1024, (6-Bromo-pyrazolo[1,5-a]pyridin-2-yl)-(1-methyl-3,4-dihydro-1H-isoquinolin-2-yl)-methanone] |  |  | IC50 [2]: 400 nM
CC1c2ccccc2CCN1C(=O)c1cc2ccc(Cl)cn2n1 (stereo not shown) [drawing 1010, (6-Chloro-pyrazolo[1,5-a]pyridin-2-yl)-(1-methyl-3,4-dihydro-1H-isoquinolin-2-yl)-methanone] |  | 102 nM | 
CC1c2ccccc2CCN1C(=O)c1cc2ccc(Cl)cn2n1 (stereo not shown) [drawing 1025, (6-Chloro-pyrazolo[1,5-a]pyridin-2-yl)-(1-methyl-3,4-dihydro-1H-isoquinolin-2-yl)-methanone] |  |  | IC50 [2]: 260 nM
O=C(c1cc2ccc(Br)cn2n1)N1CCc2ncc(Br)cc2C1 [drawing 1019, (3-Bromo-7,8-dihydro-5H-[1,6]naphthyridin-6-yl)-(6-bromo-pyrazolo[1,5-a]pyridin-2-yl)-methanone] | 108 nM |  | 
C[C@@H]1c2ccccc2CCN1C(=O)c1cc2c(Cl)cc(Cl)cn2n1 [drawing 1016, (4,6-Dichloro-pyrazolo[1,5-a]pyridin-2-yl)-((R)-1-methyl-3,4-dihydro-1H-isoquinolin-2-yl)-methanone] |  | 114 nM | 
CC1c2ccccc2CCN1C(=O)c1cc2ccc(Br)cn2n1 (stereo not shown) [drawing 1017, (6-Bromo-pyrazolo[1,5-a]pyridin-2-yl)-(1-methyl-3,4-dihydro-1H-isoquinolin-2-yl)-methanone] | 151 nM |  | 
CC1c2ccccc2CCN1C(=O)c1cc2ccc(Cl)cn2n1 (stereo not shown) [drawing 1018, (6-Chloro-pyrazolo[1,5-a]pyridin-2-yl)-(1-methyl-3,4-dihydro-1H-isoquinolin-2-yl)-methanone] | 45 nM |  | 
CC1c2ccsc2CCN1C(=O)c1cc2ccc(Br)cn2n1 (stereo not shown) [drawing 1012, (6-Bromo-pyrazolo[1,5-a]pyridin-2-yl)-(4-methyl-6,7-dihydro-4H-thieno[3,2-c]pyridin-5-yl)-methanone] |  | 167 nM | 
CC1c2ccccc2CCN1C(=O)c1cc2ccc(Br)cn2n1 (stereo not shown) [drawing 1009, (6-Bromopyrazolo[1,5-a]pyridin-2-yl)-(1-methyl-3,4-dihydro-1H-isoquinolin-2-yl)-methanone] |  | 218 nM | 
Cc1ccc2n1CCN(C(=O)c1cc3ccc(Br)cn3n1)C2C (stereo not shown) [drawing 1021, 6-bromo-2-[(1,6-dimethyl-3,4-dihydropyrrolo[1,2-a]pyrazin-2(1 H)-yl)carbonyl]pyrazolo[1,5-a]pyridine] | 148 nM |  | 
CC1c2ccoc2CCN1C(=O)c1cc2ccc(Br)cn2n1 (stereo not shown) [drawing 1014, (6-Bromo-pyrazolo[1,5-a]pyridin-2-yl)-(4-methyl-6,7-dihydro-4H-furo[3,2-c]pyridin-5-yl)-methanone] |  | 166 nM | 
C[C@@H]1c2ccccc2CCN1C(=O)c1cc2c(Cl)cc(Cl)cn2n1 [drawing 1027, (4,6-Dichloro-pyrazolo[1,5-a]pyridin-2-yl)-((R)-1-methyl-3,4-dihydro-1H-isoquinolin-2-yl)-methanone] |  |  | IC50 [2]: 43 nM
O=C(c1cc2ccc(Br)cn2n1)N1CCc2ncc(Br)cc2C1 [drawing 1011, (3-Bromo-7,8-dihydro-5H-[1,6]naphthyridin-6-yl)-(6-bromo-pyrazolo[1,5-a]pyridin-2-yl)-methanone] |  | 306 nM | 
CC1c2ccsc2CCN1C(=O)c1cc2ccc(Br)cn2n1 (stereo not shown) [drawing 1020, (6-Bromo-pyrazolo[1,5-a]pyridin-2-yl)-(4-methyl-6,7-dihydro-4H-thieno[3,2-c]pyridin-5-yl)-methanone] | 51 nM |  | 
CC1c2ccoc2CCN1C(=O)c1cc2ccc(Br)cn2n1 (stereo not shown) [drawing 1026, (6-Bromo-pyrazolo[1,5-a]pyridin-2-yl)-(4-methyl-6,7-dihydro-4H-furo[3,2-c]pyridin-5-yl)-methanone] |  |  | IC50 [2]: 655 nM
